Measurements: patent US10501481B2, “Heterocyclic compounds and their use in preventing or treating bacterial infections” (priority 2015, dated 2019)

Legend:
[1] = tested on: E. cloacae UFR38 (CTX-M-15, NDM-1); assay: MIC broth microdilution, alone and synergy with ceftazidime; conditions: for MIC: Enterobacter cloacae, read-out: MIC compounds of the invention alone; for MIC of CAZ in combination with compound at 4 μg/mL: strain UFR38, compound fixed at 4 μg/mL
[2] = biological target: AmpC P. aeruginosa (Pseudomonas aeruginosa, UniProt P24735); assay: biochemical
Procedure: Enzyme activity was monitored by spectrophotometric measurement of nitrocefin (NCF-TOKU-E, N005) hydrolysis at 485 nm, at room temperature and in assay buffer A: 100 mM Phosphate pH7, 2% glycerol and 0.1 mg/mL Bovine serum albumin (Sigma, B4287). Enzymes were cloned in E. coli expression vector, expressed and purified in house using classical procedures. To a transparent polystyrene plate (Corning, 3628) were added in each well 5 μL DMSO or inhibitor dilutions in DMSO and 80 μL enzyme in buffer A. Plates were immediately read at 485 nm in a microplate spectrophotometer (BioTek, PowerWave HT) to enable background subtraction. After 30 min of pre-incubation at room temperature, 15 μL of NCF (200 μM final) were finally added in each well. Final enzyme concentrations were 0.1 nM (TEM-1), 0.075 nM (SHV-1), 0.4 nM (CTX-M-15), 1 nM (KPC-2), 0.2 nM (P99 AmpC), 0.2 nM (CMY-37), 0.4 nM (AmpC P. aeruginosa), 0.2 nM (OXA-1), 1.2 nM (OXA-11), 0.4 nM (OXA-15) and 0.3 nM (OXA-48). After 20 min incubation at room temperature, plates were once again read at 485 nm. Enzyme activity was obtained by subtracting the final signal by the background, and was converted to enzyme inhibition using non inhibited wells. IC50 curves were fitted to a classical Langmuir equilibrium model with Hill slope using XLFIT (IDBS).

[3] = tested on: E. coli UFR74 (SHV-1, DHA-1); assay: MIC broth microdilution, alone and synergy with ceftazidime; conditions: for MIC of CAZ in combination with compound at 4 μg/mL: strain UFR74, compound fixed at 4 μg/mL
[4] = biological target: T1, SHV-1 (Klebsiella pneumoniae, UniProt P0AD64); assay: β-lactamase inhibitory activity, nitrocefin hydrolysis; type: biochemical
T1 construct: made in house; host or cells: E. coli
Procedure: (§1) Enzyme activity was monitored by spectrophotometric measurement of nitrocefin (NCF-TOKU-E, N005) hydrolysis at 485 nm, at room temperature and in assay buffer A: 100 mM Phosphate pH7, 2% glycerol and 0.1 mg/mL Bovine serum albumin (Sigma, B4287). […] To a transparent polystyrene plate (Corning, 3628) were added in each well 5 μL DMSO or inhibitor dilutions in DMSO and 80 μL enzyme in buffer A. Plates were immediately read at 485 nm in a microplate spectrophotometer (BioTek, PowerWave HT) to enable background subtraction. After 30 min of pre-incubation at room temperature, 15 μL of NCF (200 μM final) were finally added in each well. Final enzyme concentrations were 0.1 nM (TEM-1), 0.075 nM (SHV-1), 0.4 nM (CTX-M-15), 1 nM (KPC-2), 0.2 nM (P99 AmpC), 0.2 nM (CMY-37), 0.4 nM (AmpC P. aeruginosa), 0.2 nM (OXA-1), 1.2 nM (OXA-11), 0.4 nM (OXA-15) and 0.3 nM (OXA-48). After 20 min incubation at room temperature, plates were once again read at 485 nm. Enzyme activity was obtained by subtracting the final signal by the background, and was converted to enzyme inhibition using non inhibited wells. IC50 curves were fitted to a classical Langmuir equilibrium model with Hill slope using XLFIT (IDBS).

[5] = tested on: E. coli UFR61O (TEM-1, KPC-2); assay: MIC broth microdilution, alone and synergy with ceftazidime; conditions: for MIC of CAZ in combination with compound at 4 μg/mL: strain UFR61O, compound fixed at 4 μg/mL
[6] = tested on: K. pneumoniae 6299 (TEM-1, SHV-11, OXA-163); assay: as above; conditions: for MIC: Klebsiella pneumoniae, read-out: MIC compounds of the invention alone; for MIC of CAZ in combination with compound at 4 μg/mL: strain 6299, compound fixed at 4 μg/mL
[7] = tested on: P. aeruginosa CIP105250 (OXA-15); assay: MIC broth microdilution, compounds alone; conditions: Pseudomonas aeruginosa, CIP105250, read-out: MIC compounds of the invention alone
[8] = tested on: K. pneumoniae 160143 (TEM-1, SHV-1, CTX-M-15, KPC-2, OXA-1); assay: MIC broth microdilution, alone and synergy with ceftazidime; conditions: for MIC of CAZ in combination with compound at 4 μg/mL: strain 160143, compound fixed at 4 μg/mL
[9] = biological target: T2, CTX-M-15 (Escherichia coli, UniProt Q9EXV5); assay: β-lactamase inhibitory activity, nitrocefin hydrolysis; type: biochemical
T2 construct: made in house; host or cells: E. coli
Procedure: as §1

[10] = tested on: K. pneumoniae BAA-1898 (TEM-1, SHV-11, SHV-12, KPC-2); assay: microbe, parasite or virus in culture; type: cell-based; conditions: for MIC: Klebsiella pneumoniae, BAA1898, read-out: MIC compounds of the invention alone
[11] = tested on: E. cloacae P99 (AmpC); assay: MIC broth microdilution, alone and synergy with ceftazidime; conditions: for MIC: Enterobacter cloacae, read-out: MIC compounds of the invention alone; for MIC of CAZ in combination with compound at 4 μg/mL: strain P99, compound fixed at 4 μg/mL
[12] = tested on: E. coli UFR18 (CTX-M-15, OXA-204); assay: as above; conditions: for MIC: Escherichia coli, read-out: MIC compounds of the invention alone; for MIC of CAZ in combination with compound at 4 μg/mL: strain UFR18, compound fixed at 4 μg/mL
[13] = tested on: K. pneumoniae UFR77 (CMY-2); assay: as above; conditions: for MIC: Klebsiella pneumoniae, read-out: MIC compounds of the invention alone; for MIC of CAZ in combination with compound at 4 μg/mL: strain UFR77, compound fixed at 4 μg/mL
[14] = tested on: P. aeruginosa CIP107051 (TEM-24); assay: as above; conditions: for MIC: Pseudomonas aeruginosa, CIP107051, read-out: MIC compounds of the invention alone; for MIC of CAZ in combination with compound at 4 μg/mL: strain CIP107051, compound fixed at 4 μg/mL
[15] = tested on: K. pneumoniae 200047 (TEM-1, SHV-32, CTX-M-15, OXA-1); assay: as above; conditions: for MIC of CAZ in combination with compound at 4 μg/mL: strain 200047, compound fixed at 4 μg/mL
[16] = tested on: E. cloacae UFR85 (TEM-1, CTX-M-15, derepressed AmpC); assay: as above; conditions: strain UFR85; compound fixed at 4 μg/mL
[17] = biological target: T3, TEM-1 (Escherichia coli, UniProt P62593); assay: β-lactamase inhibitory activity, nitrocefin hydrolysis; type: biochemical; conditions: class (A); 30 min pre-incubation; nitrocefin 200 μM
T3 construct: made in house; host or cells: E. coli
Procedure: as §1

[18] = tested on: K. pneumoniae UFR68 (TEM-1, SHV-11, CTX-M-15, KPC-3); assay: MIC broth microdilution, alone and synergy with ceftazidime; conditions: for MIC: Klebsiella pneumoniae, read-out: MIC compounds of the invention alone; for MIC of CAZ in combination with compound at 4 μg/mL: strain UFR68, compound fixed at 4 μg/mL
[19] = tested on: E. coli RGN238 (OXA-1); assay: as above; conditions: for MIC: Escherichia coli, read-out: MIC compounds of the invention alone; for MIC of CAZ in combination with compound at 4 μg/mL: strain RGN238, compound fixed at 4 μg/mL
[20] = tested on: E. coli UFR32 (TEM-1, VEB-1, OXA-10); assay: as above; conditions: strain UFR32; compound fixed at 4 μg/mL
[21] = tested on: C. murliniae 210102 (VIM-4); assay: as above; conditions: for MIC: read-out: MIC compounds of the invention alone
[22] = tested on: E. coli 190317 (TEM-1, SHV-12, CTX-M-15, OXA-1); assay: as above; conditions: strain 190317; compound fixed at 4 μg/mL
[23] = biological target: T4, OXA-48 (Klebsiella pneumoniae, UniProt Q6XEC0); assay: β-lactamase inhibitory activity, nitrocefin hydrolysis; type: biochemical
T4 construct: made in house; host or cells: E. coli
Procedure: as §1

[24] = Klebsiella pneumoniae, read-out: MIC compounds of the invention alone
[25] = Escherichia coli, read-out: MIC compounds of the invention alone

T1 sequence (P0AD64 22-286): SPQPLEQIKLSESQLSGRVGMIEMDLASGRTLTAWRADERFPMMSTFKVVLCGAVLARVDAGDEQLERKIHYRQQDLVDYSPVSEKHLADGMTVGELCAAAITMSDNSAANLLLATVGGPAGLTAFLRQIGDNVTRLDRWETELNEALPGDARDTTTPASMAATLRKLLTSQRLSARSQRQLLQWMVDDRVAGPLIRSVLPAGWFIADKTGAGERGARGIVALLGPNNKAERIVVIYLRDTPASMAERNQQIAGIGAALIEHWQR
Sequence of AmpC P. aeruginosa (P24735 27-397): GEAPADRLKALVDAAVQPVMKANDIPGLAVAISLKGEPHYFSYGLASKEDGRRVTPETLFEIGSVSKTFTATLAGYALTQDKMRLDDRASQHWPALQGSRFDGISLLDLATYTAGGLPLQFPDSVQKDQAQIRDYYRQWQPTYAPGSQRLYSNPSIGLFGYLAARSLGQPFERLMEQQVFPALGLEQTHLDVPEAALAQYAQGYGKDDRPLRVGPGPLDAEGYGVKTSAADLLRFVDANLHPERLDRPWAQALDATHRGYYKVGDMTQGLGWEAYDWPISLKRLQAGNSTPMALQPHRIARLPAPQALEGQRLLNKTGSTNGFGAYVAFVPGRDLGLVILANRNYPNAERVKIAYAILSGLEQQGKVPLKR
T2 sequence (Q9EXV5 entry or part of it): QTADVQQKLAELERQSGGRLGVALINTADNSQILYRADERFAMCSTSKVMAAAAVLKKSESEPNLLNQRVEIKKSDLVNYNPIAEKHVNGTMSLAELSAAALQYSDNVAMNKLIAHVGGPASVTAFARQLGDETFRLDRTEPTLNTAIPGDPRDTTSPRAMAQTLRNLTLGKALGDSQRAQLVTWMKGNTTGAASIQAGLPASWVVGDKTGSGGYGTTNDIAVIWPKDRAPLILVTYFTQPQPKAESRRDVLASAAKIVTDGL
T3 sequence (P62593 24-286 limits assumed): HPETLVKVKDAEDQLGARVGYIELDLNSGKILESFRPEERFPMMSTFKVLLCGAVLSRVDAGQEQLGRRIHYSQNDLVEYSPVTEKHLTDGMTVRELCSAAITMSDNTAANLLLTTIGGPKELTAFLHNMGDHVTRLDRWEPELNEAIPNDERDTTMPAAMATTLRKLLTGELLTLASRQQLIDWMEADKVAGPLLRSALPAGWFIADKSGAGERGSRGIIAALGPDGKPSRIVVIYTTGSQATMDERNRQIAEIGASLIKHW
T4 sequence (Q6XEC0 23-265 limits assumed): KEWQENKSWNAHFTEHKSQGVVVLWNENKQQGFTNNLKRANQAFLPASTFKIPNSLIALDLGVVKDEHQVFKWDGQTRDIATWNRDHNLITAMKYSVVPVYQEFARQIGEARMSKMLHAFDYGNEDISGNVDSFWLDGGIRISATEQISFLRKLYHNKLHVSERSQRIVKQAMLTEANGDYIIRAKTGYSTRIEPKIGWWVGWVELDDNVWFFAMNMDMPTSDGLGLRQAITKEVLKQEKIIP

| Structure (SMILES) | MIC [1] [µg/mL] | MIC of CAZ in combination with compound at 4 μg/mL [1] [µg/mL] | IC50 [2] [nM] | MIC of CAZ in combination with compound at 4 μg/mL [3] [µg/mL] | IC50 [4] [nM] | MIC of CAZ in combination with compound at 4 μg/mL [5] [µg/mL] | MIC [6] [µg/mL] | MIC of CAZ in combination with compound at 4 μg/mL [6] [µg/mL] | MIC [7] [µg/mL] | MIC of CAZ in combination with compound at 4 μg/mL [8] [µg/mL] | IC50 [9] [nM] | MIC [10] [µg/mL] | MIC [11] [µg/mL] | MIC of CAZ in combination with compound at 4 μg/mL [11] [µg/mL] | MIC [12] [µg/mL] | MIC of CAZ in combination with compound at 4 μg/mL [12] [µg/mL] | MIC [13] [µg/mL] | MIC of CAZ in combination with compound at 4 μg/mL [13] [µg/mL] | MIC [14] [µg/mL] | MIC of CAZ in combination with compound at 4 μg/mL [14] [µg/mL] | further results |
| --- | --- | --- | --- | --- | --- | --- | --- | --- | --- | --- | --- | --- | --- | --- | --- | --- | --- | --- | --- | --- | --- |
| Cn1c2c(sc1=O)C1CN(C2)C(=O)N1OS(=O)(=O)[O-].[Na+] (centres unmarked) [Example 1, Sodium (5-methyl-4,9-dioxo-3-thia-5,8,10-triaza-tricyclo[6.2.1.0^2.6]undec-2(6)-en-10-yl) sulfate] | 8 | >128 | 190 | <0.25 | 12 | <0.25 | 16 | 4 | > 32 | 0.5 | 0.69 | 16 | 8 | 0.5 | 4 | <0.25 | 8 | ≤0.25 | > 128 | 4 | MIC of CAZ in combination with compound at 4 μg/mL ([10]; strain BAA-1898, compound fixed at 4 μg/mL): 64 µg/mL; MIC [15, 24]: 4 µg/mL; MIC of CAZ in combination with compound at 4 μg/mL [15]: <0.25 µg/mL; MIC of CAZ in combination with compound at 4 μg/mL [16]: <0.25 µg/mL; IC50 [17]: 3.3 nM; MIC [18]: 32 µg/mL; MIC of CAZ in combination with compound at 4 μg/mL [18]: 64 µg/mL; MIC [19]: 2 µg/mL; MIC of CAZ in combination with compound at 4 μg/mL [19]: <0.25 µg/mL; MIC of CAZ in combination with compound at 4 μg/mL [20]: <0.25 µg/mL; MIC [21]: 32 µg/mL; MIC of CAZ in combination with compound at 4 μg/mL ([21]; strain 210102, compound fixed at 4 μg/mL): >128 µg/mL; MIC of CAZ in combination with compound at 4 μg/mL [22]: ≤0.125 µg/mL; IC50 [23]: 0.89 nM |
| COC(=O)Cn1c2c(sc1=O)C1CN(C2)C(=O)N1OS(=O)(=O)[O-].[Na+] (centres unmarked) [Example 2, Sodium [5-(2-methoxy-2-oxo-ethyl)-4,9-dioxo-3-thia-5,8,10-triaza-tricyclo[6.2.1.0^2.6]undec-2(6)-en-10-yl] sulfate] | 8 | >128 | 220 | 1 | 1.3 | <0.25 | 8 | 4 | > 32 | 8 | 1.1 | 32 | 16 | 4 | 4 | 0.5 | 4 | 0.25 | > 32 | 16 | MIC [3, 25]: 8 µg/mL; MIC [5, 25]: 8 µg/mL; MIC [8, 24]: 16 µg/mL; MIC of CAZ in combination with compound at 4 μg/mL [15]: <0.25 µg/mL; MIC of CAZ in combination with compound at 4 μg/mL [16]: 16 µg/mL; IC50 [17]: 0.64 nM; MIC [18]: 32 µg/mL; MIC of CAZ in combination with compound at 4 μg/mL [18]: 32 µg/mL; MIC [19]: 1 µg/mL; MIC of CAZ in combination with compound at 4 μg/mL [19]: <0.25 µg/mL; MIC of CAZ in combination with compound at 4 μg/mL [20]: <0.25 µg/mL; MIC [21]: 16 µg/mL; MIC of CAZ in combination with compound at 4 μg/mL [22]: <0.25 µg/mL; IC50 [23]: 0.67 nM |
